Measurements reported in PMC9351488 (Proceedings of the National Academy of Sciences of the …, 2022).
Structures can show the parent of a compound that is named as a salt.

Tests used:
Format in all cases: in vivo, mouse
[1] = test system: naïve WT mice; assay: Acute itch behaviors; conditions: i.t., counted within 30 min, morphine 2 nmol
[2] = test system: mice; assay: Antinociceptive tolerance in CFA model; conditions: i.t. 7 consecutive days, H-20 30 nmol or morphine 20 nmol
[3] = test system: spinal cord of naïve WT mice; assay: Spinal cord immunohistochemistry; conditions: i.t. daily for 7 d, H-20 30 nmol or morphine 2 nmol
[4] = test system: mice; assay: Conditioned place preference; conditions: i.t. H-20 30 nmol or morphine 2 nmol
[5] = test system: mice; assay: Rotarod test; conditions: i.t. H-20 30 nmol or morphine 2 nmol, 15 to 120 min
[6] = test system: mice; assay: Open field test; conditions: i.t., 30 min before test

How did the itch-related scratching behaviors [1] turn out when `CN1CC[C@]23c4c5ccc(O)c4O[C@H]2[C@@H](O)C=C[C@H]3[C@H]1C5` [morphine, Morphine hydrochloride] was run?
The itch-related scratching behaviors was “significantly evoked itch-related scratching behaviors”.

And the “antiallodynic effect after repeated injection (tolerance)” value [2]?
The value was “significantly decreased on test day 7”.

And the “microglial activation in spinal cord” value [3]?
Its value is “induced significant microglial activation”.

And the “number of c-Fos–positive neurons in spinal cord” value [3]?
The value was “markedly increased the number of c-Fos–positive neurons”.

And the CPP response [4]?
The CPP response was “significant increase in the drug-treated chamber”.

And the time on rotarod [5]?
The time on rotarod was “did not change the length of time”.

And the “time in center area and frequency of entry into central zone (anxiety)” value [6]?
Its value is “No intergroup differences were observed”.
